For 25 molecules, IC50 results are on record in patent US7781428B2 (Pfizer Inc., priority 2006, dated 2010).

In this test the target is T1, mineralocorticoid receptor (MR) (Homo sapiens, UniProt P08235).
T1 construct: expressed in transfected cells; host or cells: Huh7 (human liver cells)
T1 sequence (P08235 726-964 limits assumed): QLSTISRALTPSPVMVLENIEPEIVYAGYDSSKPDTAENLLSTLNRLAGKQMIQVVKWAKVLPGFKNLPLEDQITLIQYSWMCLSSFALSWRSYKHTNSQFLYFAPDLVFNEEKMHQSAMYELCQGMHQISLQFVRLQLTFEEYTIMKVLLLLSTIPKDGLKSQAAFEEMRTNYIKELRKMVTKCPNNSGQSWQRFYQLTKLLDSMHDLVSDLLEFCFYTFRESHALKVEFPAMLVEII
The test can be described thus: Cell-based Gal4 response element-controlled luciferase reporter assay (MR antagonism). The note with it: Huh7 human liver cells transfected with Gal4 DBD-MR LBD fusion and luciferase reporter; block of agonist-induced activation; overnight incubation. From the text: Method 1: Cell-based Gal4 Response Element-controlled Luciferase Reporter Assay
An in vitro assay can be used to evaluate mineralocorticoid receptor (MR) antagonism by a test compound. […] An agonist of the receptor can bind to and activate the receptor LBD, which activate the expression of the Gal4 response element containing luciferase reporter gene. Antagonists can compete for binding to the receptor LBDs and decrease the transcription activity of the reporter gene. Measurement of luciferase activity allows quantitative determinations of the reporter transcription in the presence of either agonists or agonists and antagonists in combination. β-galactosidase activity, which is unaffected by ligand, is used to normalize the transfection efficiency in the cell population.
Huh7 cells were plated in RPMI1640+10% fetal bovine serum (Invitrogen Corporation, San Diego, Calif.), at 10,000 cells per well in 96-well tissue culture dishes for approximately 24 hours. Cells were then transfected using FuGENE™ 6 Transfection Reagent according to manufacturers' instructions (Roche Molecular Biochemicals, Indianapolis, Ind.). Approximately 20 hours after transfection, media were removed. Cells were washed once with PBS and treated (n=6/group) with agonist for each receptor (all chemicals from Sigma, St. Louis, Mo.), and with compounds. Agonist concentrations represent 70-80% of full activation of each receptor.
Compounds were dissolved in DMSO at 10 mM and diluted to final concentrations in phenol red-free media that contained 10% charcoal- and dextran-stripped serum (Life Technologies, Gathersburg, Md.). Following overnight incubation (18-20 hours) with compounds, the medium was removed and replaced with 100 μL per well of PBS and 100 μL of Steady-Glo™ lysis buffer with luciferase substrate (Promega Corporation, Madison, Wis.). After a 30-minute incubation to completely lyse the cells, 100 μL of the lysate was transferred to a black, Dynatech Microfluor assay plates (Dynex Corporation, Chantilly, Va.) to measure luciferase activity. The plate was sealed with TopSeal self-adhesive film, dark-adapted for 5 minutes, then counted in a TopCount Plate Reader (Packard Instrument Company, Meriden, Conn.) in single photon counting mode. The remaining lysate was used for determination of β-galactosidase activity. In a clear 96-well assay plate, 100 μL of cell lysate was added to 100 μL β-galactosidase assay buffer per well. The assay buffer consisted of 60 mM Na2HPO4, 40 mM NaH2PO4, 10 mM KCl, 1 mM MgSO4, 50 mM β-mercaptoethanol, and 2.5 mg/mL ONPG, the latter two reagents were added just prior to assay (all chemicals from Sigma). The reaction was allowed to proceed until a distinct yellow color developed. Reactions were stopped by the addition of 100 μL per well 1 M Na2CO3 and plates were read at 420 nm in Victor-2 (Perkin Elmer Life Sciences, Boston, Mass.). Values (relative luciferase activity) for each sample were expressed as a ratio of luciferase activity to OD420β-galactosidase activity measured in arbitrary units for each well. […] “b” is the slope, “c” is the IC50 or EC50. “x” is the concentration of the compound and “y” the activity at that concentration.
A general note: In a reporter assay the amount or activity of a reporter protein is the signal.
As to `N#Cc1ccc(N2N=C3c4ccc(C(=O)O)cc4CCC3C2c2ccoc2)cc1Cl` (racemic) [Example 46, 2-(3-chloro-4-cyanophenyl)-3-(3-furyl)-3,3a,4,5-tetrahydro-2H-benzo[g]indazole-7-carboxylic acid], the IC50 stood at 69 nM. For the molecule `Cc1ncc(C2C3CCc4cc(C(=O)O)ccc4C3=NN2c2ccc(C#N)c(Cl)c2)s1` (racemic) [Example 49, 2-(3-chloro-4-cyanophenyl)-3-(2-methyl-1,3-thiazol-5-yl)-3,3a,4,5-tetrahydro-2H-benzo[g]indazole-7-carboxylic acid], the half-inhibitory concentration (IC50) worked out at 103 nM. With `N#Cc1ccc(N2N=C3c4ccc(C(=O)O)cc4CCC3C2C2=CCCC2)cc1` (racemic) [Example 50, 2-(4-cyanophenyl)-3-cyclopent-1-en-1-yl-3,3a,4,5-tetrahydro-2H-benzo[g]indazole-7-carboxylic acid], the IC50 was 205 nM.

Turning to `Cc1cc(N2N=C3c4ccc(C(=O)O)cc4CCC3C2C2=CCCC2)ccc1C#N` (racemic) [Example 51, 2-(4-cyano-3-methylphenyl)-3-cyclopentenyl-3,3a,4,5-tetrahydro-2H-benzo[g]indazole-7-carboxylic acid], the IC50 is 7 nM. As to `N#Cc1ccc(N2N=C3c4ccc(C(=O)O)cc4CCC3C2c2ccno2)cc1` (racemic) [Example 52, 2-(4-cyanophenyl)-3-isoxazol-5-yl-3,3a,4,5-tetrahydro-2H-benzo[g]indazole-7-carboxylic acid], the IC50 came to 4980 nM. Next, `Cc1cc(N2N=C3c4ccc(C(=O)O)cc4OCC3C2c2ccc(F)cc2)ccc1C#N` (racemic) [Example 53, (±)-(3SR,3aSR)-2-(4-cyano-3-methylphenyl)-3-(4-fluorophenyl)-2,3,3a,4-tetrahydrochromeno[4,3-c]pyrazole-7-carboxylic acid]: 307 nM; `N#Cc1ccc(N2N=C3c4ccc(C(=O)O)cc4OCC3C2c2ccc(F)cc2)cc1C(F)(F)F` (racemic) [Example 54, 2-(4-cyano-3-(trifluoromethyl)phenyl)-3-(4-fluorophenyl)-2,3,3a,4-tetrahydrochromeno[4,3-c]pyrazole-7-carboxylic acid]: 973 nM. On to `N#Cc1ccc(N2N=C3c4ccc(C(=O)O)cc4OCC3C2c2ccc(F)cc2)cc1Cl` (racemic) [Example 55, 2-(3-chloro-4-cyanophenyl)-3-(4-fluorophenyl)-2,3,3a,4-tetrahydrochromeno[4,3-c]pyrazole-7-carboxylic acid], for which the IC50 stood at 849 nM. As for `N#Cc1ccc(N2N=C3c4ccc(C(=O)O)cc4OCC3C2c2ccc(F)cc2)cc1` (racemic) [Example 58, 2-(4-cyanophenyl)-3-(4-fluorophenyl)-2,3,3a,4-tetrahydrochromeno[4,3-c]pyrazole-7-carboxylic acid], the IC50 came to 3180 nM.

For `Cc1cc(N2N=C3c4ccc(C(=O)O)cc4OCC3C2C2CCCC2)ccc1C#N` (racemic) [Example 61, 2-(4-cyano-3-methylphenyl)-3-cyclopentyl-2,3,3a,4-tetrahydrochromeno[4,3-c]pyrazole-7-carboxylic acid], the IC50 came out at 39 nM. Regarding `N#Cc1ccc(N2N=C3c4ccc(C(=O)O)cc4OCC3C2C2CCCC2)cc1Cl` (racemic) [Example 64, 2-(3-chloro-4-cyanophenyl)-3-cyclopentyl-2,3,3a,4-tetrahydrochromeno[4,3-c]pyrazole-7-carboxylic acid], the half-inhibitory concentration (IC50) came out at 65 nM. The value for `N#Cc1ccc(N2N=C3c4ccc(C(=O)O)cc4OCC3C2C2CCCC2)cc1Cl` (racemic) [Example 67, 2-(3-chloro-4-cyanophenyl)-3-cyclopentyl-2,3,3a,4-tetrahydrochromeno[4,3-c]pyrazole-7-carboxylic acid] was 146 nM. The value for `N#Cc1ccc(N2N=C3c4ccc(C(=O)O)cc4OCC3C2C2CCCC2)cc1C(F)(F)F` (racemic) [Example 68, (±)-(3RS,3aSR)-2-[4-cyano-3-(trifluoromethyl)phenyl]-3-cyclopentyl-2,3,3a,4-tetrahydrochromeno[4,3-c]pyrazole-7-carboxylic acid] was 52 nM; that for `N#Cc1ccc(N2N=C3c4ccc(C(=O)O)cc4OCC3C2C2CCCC2)cc1C(F)(F)F` (racemic) [Example 69, (±)-(3RS,3aRS)-2-[4-cyano-3-(trifluoromethyl)phenyl]-3-cyclopentyl-2,3,3a,4-tetrahydrochromeno[4,3-c]pyrazole-7-carboxylic acid] was 130 nM; that for `N#Cc1ccc(N2N=C3c4ccc(C(=O)O)cc4OCC3C2C2CCCC2)cc1` (racemic) [Example 70, 2-(4-cyanophenyl)-3-cyclopentyl-2,3,3a,4-tetrahydrochromeno[4,3-c]pyrazole-7-carboxylic acid] was 906 nM. Regarding `CC(C)C1C2COc3cc(C(=O)O)ccc3C2=NN1c1ccc(C#N)c(Cl)c1` (racemic) [Example 74, 2-(3-chloro-4-cyanophenyl)-3-isopropyl-2,3,3a,4-tetrahydrochromeno[4,3-c]pyrazole-7-carboxylic acid], the IC50 amounted to 588 nM. As for `Cc1cc(N2N=C3c4ccc(C(=O)O)cc4OCC3C2C2CC2)ccc1C#N` (racemic) [Example 75, 2-(4-cyano-3-methylphenyl)-3-cyclopropyl-2,3,3a,4-tetrahydrochromeno[4,3-c]pyrazole-7-carboxylic acid], the IC50 turned out to be 711 nM. In the case of `N#Cc1ccc(N2N=C3c4ccc(C(=O)O)cc4OCC3C2C2CC2)cc1Cl` (racemic) [Example 76, 2-(3-chloro-4-cyanophenyl)-3-cyclopropyl-2,3,3a,4-tetrahydrochromeno[4,3-c]pyrazole-7-carboxylic acid], the half-inhibitory concentration (IC50) is over 1000 nM. As for `Cc1cc(N2N=C3c4ccc(C(=O)O)cc4OC[C@@H]3[C@@H]2C2=CCCC2)ccc1C#N` (racemic) [Example 77, (±)-(3RS,3aRS)-2-(4-cyano-3-methylphenyl)-3-cyclopentenyl-2,3,3a,4-tetrahydrochromeno[4,3-c]pyrazole-7-carboxylic acid], the IC50 stood at 13 nM. As to `N#Cc1ccc(N2N=C3c4ccc(C(=O)O)cc4OCC3C2C2=CCCC2)cc1Cl` (racemic) [Example 78, (±)-(3RS,3aRS)-2-(3-chloro-4-cyanophenyl)-3-cyclopentenyl-2,3,3a,4-tetrahydrochromeno[4,3-c]pyrazole-7-carboxylic acid], the IC50 turned out to be 70 nM.

For the molecule `N#Cc1ccc(N2N=C3c4ccc(CC(=O)O)cc4OCC3C2c2ccc(F)cc2)cc1` (racemic) [Example 79, (±)-(3RS,3aRS)-[2-(4-cyanophenyl)-3-(4-fluorophenyl)-2,3,3a,4-tetrahydrochromeno[4,3-c]pyrazol-7-yl]acetic acid], the IC50 amounted to 6920 nM.

Take `N#Cc1ccc(N2N=C3c4ccc(O)cc4CCC3C2c2ccc(F)cc2)cc1C(F)(F)F` (racemic) [Example 83]: the IC50 was determined as 77 nM. In the case of `N#Cc1ccc(N2N=C3c4ccc(O)cc4CCC3C2c2ccc(F)cc2)cc1Cl` (racemic) [Example 86, 2-chloro-4-(-3-(4-fluorophenyl)-7-hydroxy-3,3a,4,5-tetrahydrobenzo[g]indazol-2-yl)benzonitrile], the 50% inhibitory concentration (IC50) is 86 nM. Next, `N#Cc1ccc(N2N=C3c4ccc(O)cc4CCC3C2c2ccc(F)cc2)cc1` (racemic) [Example 89, (±)-4-((3RS,3aRS)-3-(4-fluorophenyl)-7-hydroxy-3,3a,4,5-tetrahydrobenzo[g]indazol-2-yl)benzonitrile]: 705 nM; `N#Cc1ccc(N2N=C3c4ccc(O)cc4CCC3C2c2ccc(F)cc2)cc1` (racemic) [Example 90, (±)-4-((3RS,3aSR)-3-(4-fluorophenyl)-7-hydroxy-3,3a,4,5-tetrahydrobenzo[g]indazol-2-yl)benzonitrile]: 1100 nM.

By IC50 is commonly meant the midpoint of a concentration-inhibition curve.
